Test results as given in ChEMBL document CHEMBL6103594, “Synthesis and evolution of 16-membered macrolide carrimycin derivatives as a novel class of anti-HCoV-OC43 agents targeting viral FSE RNA” (Eur J Med Chem, 2025).

Columns and labels:
Human coronavirus OC43 = assay: Antiviral activity against HCoV-OC43 infected in human NCI-H460 cells incubated for 72 hrs by CCK8 assay; assay type: functional, organism-based; conditions: Betacoronavirus 1, NCI-H460, 72 h
[1] = Cytotoxicity against human NCI-H460 cells incubated for 72 hrs by CCK8 assay; assay type: toxicity, cell-based; conditions: read-out: EC50
[2] = Selectivity index, ratio of CC50 for cytotoxicity against human NCI-H460 cells to EC50 for antiviral activity against HCoV-OC43 infected in human NCI-H460 cells; assay type: toxicity, cell-based, NCI-460; conditions: read-out: Ratio CC50/EC50

Row | Compound | EC50 (Human coronavirus OC43) | CC50 at 72 h [1] | selectivity ratio [2]
1 | CO[C@@H]1[C@@H](O[C@@H]2O[C@H](C)[C@@H](O[C@H]3C[C@@](C)(O)[C@@H](O)[C@H](C)O3)[C@H](N(C)C)[C@H]2OC(=O)c2ccc(F)c(C(F)(F)F)c2)[C@@H](CC=O)C[C@@H](C)[C@@H](O[C@H]2CC[C@H](N(C)C)[C@@H](C)O2)/C=C/C=C/C[C@@H](C)OC(=O)C[C@H]1O | 1.79 µM | 5.52 µM | 3.1
2 | CCC(=O)O[C@H]1[C@H](O[C@H]2[C@@H](CC=O)C[C@@H](C)[C@@H](O[C@H]3CC[C@H](N(C)C)[C@@H](C)O3)/C=C/C=C/C[C@@H](C)OC(=O)C[C@@H](O)[C@@H]2OC)O[C@H](C)[C@@H](O[C@H]2C[C@@](C)(O)[C@@H](O)[C@H](C)O2)[C@@H]1N(C)C | 23.4 µM | > 161 µM | > 6.9
3 | CO[C@@H]1[C@@H](O[C@@H]2O[C@H](C)[C@@H](O[C@H]3C[C@@](C)(O)[C@@H](O)[C@H](C)O3)[C@H](N(C)C)[C@H]2OC(=O)C(C)(C)C)[C@@H](CC=O)C[C@@H](C)[C@@H](O[C@H]2CC[C@H](N(C)C)[C@@H](C)O2)/C=C/C=C/C[C@@H](C)OC(=O)C[C@H]1O | 4.5 µM | 16.2 µM | 3.6
4 | CO[C@@H]1[C@@H](O[C@@H]2O[C@H](C)[C@@H](O[C@H]3C[C@@](C)(O)[C@@H](O)[C@H](C)O3)[C@H](N(C)C)[C@H]2OC(C)=O)[C@@H](CC=O)C[C@@H](C)[C@@H](O[C@H]2CC[C@H](N(C)C)[C@@H](C)O2)/C=C/C=C/C[C@@H](C)OC(=O)C[C@H]1O | 29.8 µM | > 200 µM | > 6.71
5 | CO[C@@H]1[C@@H](O[C@@H]2O[C@H](C)[C@@H](O[C@H]3C[C@@](C)(O)[C@@H](O)[C@H](C)O3)[C@H](N(C)C)[C@H]2OC(=O)/C=C/c2ccccc2)[C@@H](CC=O)C[C@@H](C)[C@@H](O[C@H]2CC[C@H](N(C)C)[C@@H](C)O2)/C=C/C=C/C[C@@H](C)OC(=O)C[C@H]1O | 1.48 µM | 5.57 µM | 3.8
6 | C=CC(=O)O[C@H]1[C@H](C)O[C@@H](O[C@H]2[C@H](N(C)C)[C@@H](OC(C)=O)[C@H](O[C@H]3[C@@H](CC=O)C[C@@H](C)[C@@H](O[C@H]4CC[C@H](N(C)C)[C@@H](C)O4)/C=C/C=C/C[C@@H](C)OC(=O)C[C@@H](O)[C@@H]3OC)O[C@@H]2C)C[C@@]1(C)O | 4.78 µM | 18.9 µM | 4
7 | COc1ccc(CC(=O)O[C@H]2[C@H](C)O[C@@H](O[C@H]3[C@H](N(C)C)[C@@H](O)[C@H](O[C@H]4[C@@H](CC=O)C[C@@H](C)[C@@H](O[C@H]5CC[C@H](N(C)C)[C@@H](C)O5)/C=C/C=C/C[C@@H](C)OC(=O)C[C@@H](O)[C@@H]4OC)O[C@@H]3C)C[C@@]2(C)O)cc1 | > 12.5 µM | 27 µM | < 2.2
8 | CO[C@@H]1[C@@H](O[C@@H]2O[C@H](C)[C@@H](O[C@H]3C[C@@](C)(O)[C@@H](O)[C@H](C)O3)[C@H](N(C)C)[C@H]2OC(=O)C2CCCC2)[C@@H](CC=O)C[C@@H](C)[C@@H](O[C@H]2CC[C@H](N(C)C)[C@@H](C)O2)/C=C/C=C/C[C@@H](C)OC(=O)C[C@H]1O | > 12.5 µM | 20 µM | < 1.6
9 | CCCC(=O)O[C@H]1[C@H](C)O[C@@H](O[C@H]2[C@H](N(C)C)[C@@H](O)[C@H](O[C@H]3[C@@H](CC=O)C[C@@H](C)[C@@H](O[C@H]4CC[C@H](N(C)C)[C@@H](C)O4)/C=C/C=C/C[C@@H](C)OC(=O)C[C@@H](O)[C@@H]3OC)O[C@@H]2C)C[C@@]1(C)O | 5.17 µM | 33.1 µM | 6.4
10 | CC(C)C(=O)OC[C@H]1O[C@@H](n2ccc(NO)nc2=O)[C@H](O)[C@@H]1O [MOLNUPIRAVIR] | 0.16 µM |  | 196
11 | CO[C@@H]1[C@@H](O[C@@H]2O[C@H](C)[C@@H](O[C@H]3C[C@@](C)(O)[C@@H](O)[C@H](C)O3)[C@H](N(C)C)[C@H]2OC(=O)C2CCC2)[C@@H](CC=O)C[C@@H](C)[C@@H](O[C@H]2CC[C@H](N(C)C)[C@@H](C)O2)/C=C/C=C/C[C@@H](C)OC(=O)C[C@H]1O | > 6.25 µM | 13.7 µM | < 2.2
12 | CO[C@@H]1[C@@H](O[C@@H]2O[C@H](C)[C@@H](O[C@H]3C[C@@](C)(O)[C@@H](O)[C@H](C)O3)[C@H](N(C)C)[C@H]2OC(=O)CC(C)C)[C@@H](CC=O)C[C@@H](C)[C@@H](O[C@H]2CC[C@H](N(C)C)[C@@H](C)O2)/C=C/C=C/C[C@@H](C)OC(=O)C[C@H]1O | 4.82 µM | 17.1 µM | 3.5
13 | CCCCCC(=O)O[C@H]1[C@H](O[C@H]2[C@@H](CC=O)C[C@@H](C)[C@@H](O[C@H]3CC[C@H](N(C)C)[C@@H](C)O3)/C=C/C=C/C[C@@H](C)OC(=O)C[C@@H](O)[C@@H]2OC)O[C@H](C)[C@@H](O[C@H]2C[C@@](C)(O)[C@@H](O)[C@H](C)O2)[C@@H]1N(C)C | 5.05 µM | 18.2 µM | 3.6
14 | CO[C@@H]1[C@@H](O[C@@H]2O[C@H](C)[C@@H](O[C@H]3C[C@@](C)(O)[C@@H](O)[C@H](C)O3)[C@H](N(C)C)[C@H]2OC(=O)C2CCCCC2)[C@@H](CC=O)C[C@@H](C)[C@@H](O[C@H]2CC[C@H](N(C)C)[C@@H](C)O2)/C=C/C=C/C[C@@H](C)OC(=O)C[C@H]1O | > 12.5 µM | 15 µM | < 1.2
15 | C=CC(=O)O[C@H]1[C@H](C)O[C@@H](O[C@H]2[C@H](N(C)C)[C@@H](O)[C@H](O[C@H]3[C@@H](CC=O)C[C@@H](C)[C@@H](O[C@H]4CC[C@H](N(C)C)[C@@H](C)O4)/C=C/C=C/C[C@@H](C)OC(=O)C[C@@H](O)[C@@H]3OC)O[C@@H]2C)C[C@@]1(C)O | 12 µM | 38.4 µM | 3.2
16 | CO[C@@H]1[C@@H](O[C@@H]2O[C@H](C)[C@@H](O[C@H]3C[C@@](C)(O)[C@@H](O)[C@H](C)O3)[C@H](N(C)C)[C@H]2OC(=O)CCCc2ccccc2)[C@@H](CC=O)C[C@@H](C)[C@@H](O[C@H]2CC[C@H](N(C)C)[C@@H](C)O2)/C=C/C=C/C[C@@H](C)OC(=O)C[C@H]1O | 11.9 µM | 39.3 µM | 3.3
17 | CO[C@@H]1[C@@H](O[C@@H]2O[C@H](C)[C@@H](O[C@H]3C[C@@](C)(O)[C@@H](O)[C@H](C)O3)[C@H](N(C)C)[C@H]2OC(=O)CCc2ccccc2)[C@@H](CC=O)C[C@@H](C)[C@@H](O[C@H]2CC[C@H](N(C)C)[C@@H](C)O2)/C=C/C=C/C[C@@H](C)OC(=O)C[C@H]1O | 3.89 µM | 18.9 µM | 4.8
18 | COc1ccc(CC(=O)O[C@H]2[C@H](C)O[C@@H](O[C@H]3[C@H](N(C)C)[C@@H](OC(C)=O)[C@H](O[C@H]4[C@@H](CC=O)C[C@@H](C)[C@@H](O[C@H]5CC[C@H](N(C)C)[C@@H](C)O5)/C=C/C=C/C[C@@H](C)OC(=O)C[C@@H](O)[C@@H]4OC)O[C@@H]3C)C[C@@]2(C)O)cc1 | > 6.25 µM | 13.1 µM | < 2.1
19 | CCCC(=O)O[C@H]1[C@H](O[C@H]2[C@@H](CC=O)C[C@@H](C)[C@@H](O[C@H]3CC[C@H](N(C)C)[C@@H](C)O3)/C=C/C=C/C[C@@H](C)OC(=O)C[C@@H](O)[C@@H]2OC)O[C@H](C)[C@@H](O[C@H]2C[C@@](C)(O)[C@@H](O)[C@H](C)O2)[C@@H]1N(C)C | 8.73 µM | 68 µM | 7.8
20 | CO[C@@H]1[C@@H](O[C@@H]2O[C@H](C)[C@@H](O[C@H]3C[C@@](C)(O)[C@@H](O)[C@H](C)O3)[C@H](N(C)C)[C@H]2OC(=O)CC(C)(C)C)[C@@H](CC=O)C[C@@H](C)[C@@H](O[C@H]2CC[C@H](N(C)C)[C@@H](C)O2)/C=C/C=C/C[C@@H](C)OC(=O)C[C@H]1O | 4.89 µM | 13.4 µM | 2.7
21 | CO[C@@H]1[C@@H](O[C@@H]2O[C@H](C)[C@@H](O[C@H]3C[C@@](C)(O)[C@@H](O)[C@H](C)O3)[C@H](N(C)C)[C@H]2OC(=O)c2ccc(F)cc2C(F)(F)F)[C@@H](CC=O)C[C@@H](C)[C@@H](O[C@H]2CC[C@H](N(C)C)[C@@H](C)O2)/C=C/C=C/C[C@@H](C)OC(=O)C[C@H]1O | 1.2 µM | 3.54 µM | 3
22 | CO[C@@H]1[C@@H](O[C@@H]2O[C@H](C)[C@@H](O[C@H]3C[C@@](C)(O)[C@@H](O)[C@H](C)O3)[C@H](N(C)C)[C@H]2OC(=O)c2ccc(C(F)(F)F)cc2)[C@@H](CC=O)C[C@@H](C)[C@@H](O[C@H]2CC[C@H](N(C)C)[C@@H](C)O2)/C=C/C=C/C[C@@H](C)OC(=O)C[C@H]1O | 5.96 µM | 6.74 µM | 1.1
23 | COc1ccc(CCC(=O)O[C@H]2[C@H](O[C@H]3[C@@H](CC=O)C[C@@H](C)[C@@H](O[C@H]4CC[C@H](N(C)C)[C@@H](C)O4)/C=C/C=C/C[C@@H](C)OC(=O)C[C@@H](O)[C@@H]3OC)O[C@H](C)[C@@H](O[C@H]3C[C@@](C)(O)[C@@H](O)[C@H](C)O3)[C@@H]2N(C)C)cc1 | 4.52 µM | 13.8 µM | 3
24 | CCCCC(=O)O[C@H]1[C@H](O[C@H]2[C@@H](CC=O)C[C@@H](C)[C@@H](O[C@H]3CC[C@H](N(C)C)[C@@H](C)O3)/C=C/C=C/C[C@@H](C)OC(=O)C[C@@H](O)[C@@H]2OC)O[C@H](C)[C@@H](O[C@H]2C[C@@](C)(O)[C@@H](O)[C@H](C)O2)[C@@H]1N(C)C | 5.35 µM | 33.5 µM | 6.2
